For 18 compounds, IC50 results are on record in US20240336611A1 (Insilico Medicine IP Limited, priority 2021, published 2024).

T1 sequence (Q9UKE5 1-367): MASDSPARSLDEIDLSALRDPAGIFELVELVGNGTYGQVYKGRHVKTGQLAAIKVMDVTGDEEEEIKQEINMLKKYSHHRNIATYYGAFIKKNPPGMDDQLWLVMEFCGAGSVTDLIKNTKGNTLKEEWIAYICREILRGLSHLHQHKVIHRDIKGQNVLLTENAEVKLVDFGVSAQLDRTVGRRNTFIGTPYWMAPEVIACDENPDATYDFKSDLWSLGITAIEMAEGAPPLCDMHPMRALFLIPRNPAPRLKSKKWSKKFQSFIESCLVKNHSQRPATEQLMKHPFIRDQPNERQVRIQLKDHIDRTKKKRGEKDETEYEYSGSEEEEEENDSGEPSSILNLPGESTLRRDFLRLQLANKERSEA

The assay has as its target T1, TNIK kinase [amino acid sequence (1-367), Invitrogen] (Homo sapiens, UniProt Q9UKE5).
T1 construct: purchased Invitrogen
Briefly: TNIK kinase inhibition assay (Z-lyte FRET-peptide). Conditions: 0.625 nM TNIK kinase, 2 μM Ser/Thr 7 peptide, 64 μM ATP, one hour at room temperature. In kind it is biochemical. How it is done:
Z-lyte assay kit was purchased from Invitrogen. A site-specific protease recognizes and cleaves non-phosphorylated FRET-peptides. Phosphorylation of FRET-peptides suppresses cleavage by protease and will maintain FRET from donor to acceptor.
5 μl of Development Reagent A solution was then added to cleave non-phosphorylated peptide with a dilution 1:65000 in Development Buffer B. The assay plate was incubated at room temperature for another one hour and then read in the Envision plate reader (PerkinElmer).
The IC50 is the point on the concentration scale where inhibition reaches its midpoint. Read a low IC50 as inhibition by little substance. Regarding `CN1C2CCC1CN(c1ccc(NC(=O)c3c[nH]c(-c4c(-c5ccc(F)cc5)ncn4C4CC4)n3)nc1)C2` [Compound 47, 3′-cyclopropyl-5′-(4-fluorophenyl)-N-(5-(8-methyl-3,8-diazabicyclo[3.2.1]octan-3-yl)pyridin-2-yl)-1H,3′H-[2,4′-biimidazole]-4-carboxamide], the IC50 fell in the range of 1 to 12 nM.
For the compound `[2H]C([2H])([2H])N1CC(c2ccc(NC(=O)c3c[nH]c(-c4c(-c5ccc(F)cc5)ncn4C4CCC4)n3)c(F)c2)C1` [Compound 120, 2-[3-cyclobutyl-5-(4-fluorophenyl)imidazol-4-yl]-N-[2-fluoro-4-[1-(trideuteriomethyl)azetidin-3-yl]phenyl]-1H-imidazole-4-carboxamide], the IC50 lay within 1 to 12 nM.
The figure for `O=C(NC1CCOCC1)c1csc(-c2c(-c3ccc(F)cc3)ncn2C2CC(F)(F)C2)n1` [Compound 77, 2-(1-(3,3-difluorocyclobutyl)-4-(4-fluorophenyl)-1H-imidazol-5-yl)-N-(tetrahydro-2H-pyran-4-yl)thiazole-4-carboxamide] is greater than 150 nM.
The figure for `O=C(Nc1ccc(N2CCCC2)cn1)c1c[nH]c(-c2c(-c3ccc(F)cc3)ncn2C2CC(F)(F)C2)n1` [Compound 76, 3′-(3,3-difluorocyclobutyl)-5′-(4-fluorophenyl)-N-(5-(pyrrolidin-1-yl)pyridin-2-yl)-1H,3′H-[2,4′-biimidazole]-4-carboxamide] is 12 to 150 nM.
The figure for `CC(C)c1onc(-c2ccc(F)cc2)c1-c1nc(C(=O)Nc2ccc(C3CN(C)C3)cc2F)co1` [Compound 106, N-(2-fluoro-4-(1-methylazetidin-3-yl)phenyl)-2-(3-(4-fluorophenyl)-5-isopropylisoxazol-4-yl)oxazole-4-carboxamide] is 12 to 150 nM; for `O=C(Nc1ccc(C2COC2)cn1)c1csc(-c2c(-c3ccc(F)cc3)ncn2C2COC2)n1` [Compound 78, 2-(4-(4-fluorophenyl)-1-(oxetan-3-yl)-1H-imidazol-5-yl)-N-(5-(oxetan-3-yl)pyridin-2-yl)thiazole-4-carboxamide] it is 1 to 12 nM.
“2-(4-(4-fluorophenyl)-1-isopropyl-1H-imidazol-5-yl)-N-(5-((1R,5S)-8-methyl-8-azabicyclo[3.2.1]octan-3-yl)pyridin-2-yl)oxazole-4-carboxamide [Compound 62]” returned a half-inhibitory concentration (IC50) of 12 to 150 nM.
Then `[2H]C([2H])([2H])N1CC(c2ccc(NC(=O)c3coc(-c4c(-c5ccc(F)cc5)ncn4C(C)C)n3)nc2)C1` [Compound 112, 2-[5-(4-fluorophenyl)-3-isopropyl-imidazol-4-yl]-N-[5-[1 (trideuteriomethyl)azetidin-3-yl]-2-pyridyl]oxazole-4-carboxamide], with 12 to 150 nM; and `CC(C)n1cnc(-c2ccc(F)cc2)c1-c1ncc(C(=O)Nc2ccc(N3CCC4(CC3)CN(C)C4)cc2)[nH]1` [Compound 19, 5′-(4-fluorophenyl)-3′-isopropyl-N-(4-(2-methyl-2,7-diazaspiro[3.5]nonan-7-yl)phenyl)-1H,3′H-[2,4′-biimidazole]-5-carboxamide], with 1 to 12 nM; and `Cc1cc(NC(=O)c2cnc(-c3c(-c4ccc(F)cc4)ncn3C(C)C)[nH]2)ccc1N1CCN(C)CC1` [Compound 18, 5′-(4-fluorophenyl)-3′-isopropyl-N-(3-methyl-4-(4-methylpiperazin-1-yl)phenyl)-1H,3′H-[2,4′-biimidazole]-5-carboxamide], with 12 to 150 nM.
For `CC(C)n1cnc(-c2ccc(F)cc2)c1-c1ncc(C(=O)Nc2ccc(N3CCN(C)CC3)cc2)s1` [Compound 3, 2-(4-(4-fluorophenyl)-1-isopropyl-1H-imidazol-5-yl)-N-(4-(4-methylpiperazin-1-yl)phenyl)thiazole-5-carboxamide], the IC50 was greater than 150 nM.
Then `CC(C)n1cnc(-c2ccc(F)cc2)c1-c1nc(C(=O)Nc2ccc(C3CCN(C)CC3)cn2)c[nH]1` [Compound 52, 5′-(4-fluorophenyl)-3′-isopropyl-N-(5-(1-methylpiperidin-4-yl)pyridin-2-yl)-1H,3′H-[2,4′-biimidazole]-4-carboxamide], with 1 to 12 nM; and `CC(C)n1cnc(-c2ccc(F)cc2)c1-c1coc(C(=O)Nc2ccc(N3CCN(C)CC3)cc2F)n1` [Compound 27, N-(2-fluoro-4-(4-methylpiperazin-1-yl)phenyl)-4-(4-(4-fluorophenyl)-1-isopropyl-1H-imidazol-5-yl)oxazole-2-carboxamide], with 12 to 150 nM.
In the case of `CC(C)n1cnc(-c2ccc(F)cc2)c1-c1nc(C(=O)Nc2ccc(N3C[C@H]4CC[C@@H](C3)N4C)nc2)c[nH]1` [Compound 25, 5′-(4-fluorophenyl)-3′-isopropyl-N-(6-((1R,5S)-8-methyl-3,8-diazabicyclo[3.2.1]octan-3-yl)pyridin-3-yl)-1H,3′H-[2,4′-biimidazole]-4-carboxamide], the IC50 was in the range of 1 to 12 nM.
The figure for `O=C(Nc1ccc(N2CCC2)cn1)c1coc(-c2c(-c3ccc(F)cc3)ncn2C2COC2)n1` [Compound 79, N-(5-(azetidin-1-yl)pyridin-2-yl)-2-(4-(4-fluorophenyl)-1-(oxetan-3-yl)-1H-imidazol-5-yl)oxazole-4-carboxamide] is 12 to 150 nM.
Then `CN1C2CC1CN(c1ccc(NC(=O)c3c[nH]c(-c4c(-c5ccc(F)cc5)ncn4C4CC4)n3)nc1)C2` [Compound 49, 3′-cyclopropyl-5′-(4-fluorophenyl)-N-(5-(6-methyl-3,6-diazabicyclo[3.1.1]heptan-3-yl)pyridin-2-yl)-1H,3′H-[2,4′-biimidazole]-4-carboxamide], with 12 to 150 nM; and `O=C(Nc1ccc(N2CCOCC2)cn1)c1c[nH]c(-c2c(-c3ccc(F)cc3)ncn2C2CC(F)(F)C2)n1` [Compound 67, 3′-(3,3-difluorocyclobutyl)-5′-(4-fluorophenyl)-N-(5-morpholinopyridin-2-yl)-1H,3′H-[2,4′-biimidazole]-4-carboxamide], with 12 to 150 nM; and `[2H]C([2H])([2H])N1CC(c2ccc(NC(=O)c3coc(-c4c(-c5ccc(F)cc5)ncn4C([2H])(C)C)n3)nc2)C1` [Compound 111], with 12 to 150 nM.
